# Columns and labels:
# Format in all cases: functional
# B16-F10 [1] = experiment: Antitumor activity against mouse B16F10 cells xenografted in C57BL/6 mouse assessed as tumor volume at 50 mg/kg/day, po after 14 days
# B16-F10 [2] = experiment: Antitumor activity against mouse B16F10 cells xenografted in C57BL/6 mouse assessed as growth inhibition at 50 mg/kg/day, po after 14 days relative to control; details: B16-F10, 336 h, read-out: TGI
# B16-F10 [3] = experiment: Antitumor activity against mouse B16F10 cells xenografted in C57BL/6 mouse assessed as tumor volume at 50 mg/kg/day, po after 17 days
compound,measurement,setting,value
Cn1nnc2c(C(N)=O)ncn2c1=O [TEMOZOLOMIDE],Activity,B16-F10 [1],1198 mm3
same,inhibition in vivo at 50 mg/kg/day,B16-F10 [2],65%
same,Activity,B16-F10 [3],2318 mm3

# Reference: ChEMBL document CHEMBL1139389, “Discovery of the Poly(ADP-ribose) polymerase (PARP) inhibitor 2-[(R)-2-methylpyrrolidin-2-yl]-1H-benzimidazole-4-carboxamide (ABT-888) for the treatment of cancer” (J Med Chem, 2009)
